In patent publication US20260035359A1, “HERBICIDAL IMIDAZOLE COMPOUNDS” (SYNGENTA CROP PROTECTION AG, priority 2022, published 2026):

Legend:
Type in all cases: in vivo
[1] = test system: Echinochloa crus-gali (ECHCG); test: Post-emergence herbicidal glasshouse test; conditions: 250 g/ha, sprayed after 8 days cultivation, evaluated after 13 days
Outline: (§1)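 Glasshouse spray test, 250 g/ha unless otherwise stated, applied 1 d (pre-emergence) or 8 d (post-emergence) after sowing. Percentage damage is scored at 13 d, banded 1 (0-20%) to 5 (81-100%).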

[2] = test system: Amaranthus pa/meri (AMAPA); test: Post-emergence herbicidal glasshouse test; conditions: 250 g/ha, sprayed after 8 days cultivation, evaluated after 13 days
Outline: as §1

[3] = test system: Setaria faberi (SETFA); test: Post-emergence herbicidal glasshouse test; conditions: 250 g/ha, sprayed after 8 days cultivation, evaluated after 13 days
Outline: as §1

[4] = test system: Ipomoea hederacea (IPOHE); test: Post-emergence herbicidal glasshouse test; conditions: 250 g/ha, sprayed after 8 days cultivation, evaluated after 13 days
Outline: as §1

[5] = test system: Amaranthus retoflexus (AMARE); test: Post-emergence herbicidal glasshouse test; conditions: 250 g/ha, sprayed after 8 days cultivation, evaluated after 13 days
Outline: as §1

[6] = test system: Echinochloa crus-gali (ECHCG); test: Pre-emergence herbicidal glasshouse test; conditions: 250 g/ha, sprayed after one day cultivation, evaluated after 13 days
Outline: as §1

[7] = test system: Amaranthus pa/meri (AMAPA); test: Pre-emergence herbicidal glasshouse test; conditions: 250 g/ha, sprayed after one day cultivation, evaluated after 13 days
Outline: as §1

[8] = test system: Setaria faberi (SETFA); test: Pre-emergence herbicidal glasshouse test; conditions: 250 g/ha, sprayed after one day cultivation, evaluated after 13 days
Outline: as §1

[9] = test system: Ipomoea hederacea (IPOHE); test: Pre-emergence herbicidal glasshouse test; conditions: 250 g/ha, sprayed after one day cultivation, evaluated after 13 days
Outline: as §1

[10] = test system: Amaranthus retoflexus (AMARE); test: Pre-emergence herbicidal glasshouse test; conditions: 250 g/ha, sprayed after one day cultivation, evaluated after 13 days
Outline: as §1

SMILES: CCCCc1nc(C(F)F)cn1Cc1ncc(Cl)cc1F [Compound 1.054, 2-[[2-butyl-4-(difluoromethyl)imidazol-1-yl]methyl]-5-chloro-3-fluoro-pyridine]
- percentage damage caused to the plant, ECHCG [1]: 1 (1=0-20%)
- percentage damage caused to the plant, AMAPA [2]: 2 (2=21-40%)
- percentage damage caused to the plant, SETFA [3]: 1 (1=0-20%)
- percentage damage caused to the plant, IPOHE [4]: 2 (2=21-40%)
- percentage damage caused to the plant, AMARE [5]: 3 (3=41-60%)
- percentage damage caused to the plant, ECHCG [6]: 1 (1=0-20%)
- percentage damage caused to the plant, AMAPA [7]: 4 (4=61-80%)
- percentage damage caused to the plant, SETFA [8]: 1 (1=0-20%)
- percentage damage caused to the plant, IPOHE [9]: 1 (1=0-20%)
- percentage damage caused to the plant, AMARE [10]: 3 (3=41-60%)

SMILES: N#CC1(c2nc(C(F)(F)F)cn2Cc2ncc(Cl)cn2)CC1 [Compound 1.060]
- percentage damage caused to the plant, ECHCG [1]: 1 (1=0-20%)
- percentage damage caused to the plant, AMAPA [2]: 2 (2=21-40%)
- percentage damage caused to the plant, SETFA [3]: 1 (1=0-20%)
- percentage damage caused to the plant, IPOHE [4]: 2 (2=21-40%)
- percentage damage caused to the plant, AMARE [5]: 2 (2=21-40%)
- percentage damage caused to the plant, ECHCG [6]: 1 (1=0-20%)
- percentage damage caused to the plant, AMAPA [7]: 2 (2=21-40%)
- percentage damage caused to the plant, SETFA [8]: 1 (1=0-20%)
- percentage damage caused to the plant, IPOHE [9]: 3 (3=41-60%)
- percentage damage caused to the plant, AMARE [10]: 2 (2=21-40%)

SMILES: FC(F)(F)CCCc1nc(Cl)c(Cl)n1Cc1ncc(Cl)cn1 [Compound 1.004, 5-chloro-2-[[4,5-dichloro-2-(4,4,4-trifluorobutyl)imidazol-1-yl]methyl]pyrimidine]
- percentage damage caused to the plant, ECHCG [1]: 3 (3=41-60%)
- percentage damage caused to the plant, AMAPA [2]: 4 (4=61-80%)
- percentage damage caused to the plant, SETFA [3]: 4 (4=61-80%)
- percentage damage caused to the plant, IPOHE [4]: 3 (3=41-60%)
- percentage damage caused to the plant, AMARE [5]: 4 (4=61-80%)
- percentage damage caused to the plant, ECHCG [6]: 3 (3=41-60%)
- percentage damage caused to the plant, AMAPA [7]: 5 (5=81-100%)
- percentage damage caused to the plant, SETFA [8]: 4 (4=61-80%)
- percentage damage caused to the plant, IPOHE [9]: 2 (2=21-40%)
- percentage damage caused to the plant, AMARE [10]: 5 (5=81-100%)

SMILES: CC(=O)CCc1nc(C(F)(F)F)cn1Cc1ncc(Cl)cn1 [Compound 1.027]
- percentage damage caused to the plant, ECHCG [1]: 1 (1=0-20%)
- percentage damage caused to the plant, AMAPA [2]: 2 (2=21-40%)
- percentage damage caused to the plant, SETFA [3]: 1 (1=0-20%)
- percentage damage caused to the plant, IPOHE [4]: 2 (2=21-40%)
- percentage damage caused to the plant, AMARE [5]: 2 (2=21-40%)
- percentage damage caused to the plant, ECHCG [6]: 1 (1=0-20%)
- percentage damage caused to the plant, AMAPA [7]: 1 (1=0-20%)
- percentage damage caused to the plant, SETFA [8]: 1 (1=0-20%)
- percentage damage caused to the plant, IPOHE [9]: 1 (1=0-20%)
- percentage damage caused to the plant, AMARE [10]: 4 (4=61-80%)
